The subject of one assay is influenza infected cells. The note with it: cited from earlier work.
Assay [1] deals with viral protein glycosylation. As to conditions: cited from earlier work.
In the next assay the test system is HIV. The note with it: Blough et al. 1986; cited from earlier work.
For another assay, the system named is HIV glycoproteins. As to conditions: Blough et al. 1986; cited from earlier work.
The next assay deals with HIV-infected cells. As to conditions: Blough et al. 1986; cited from earlier work.
In assay [2] the test system is Moloney murine leukemia virus (MoLV). In words: in vitro XC plaque assay (inhibition of growth and replication of murine leukemia virus). Type of assay: cell-based. As to conditions: SC1, MoLV on mouse SC-1 cells, rat XC cells, compound added 2 hours prior to virus, read-out: IC50 (inhibitory concentration). On the procedure: This assay was performed according to the method of Rowe et al. (Virology, 1970, 42, 1136-39) as previously described by L. Hsu, et al. (J. Viroloqical Methods, 1980, 1, 167-77) and T. L. Bowlin and M. R. Proffitt (J. Interferon Res., 1983, 3(1), 19-31). Mouse SC-1 cells (fibroblast) (10^5) were seeded into each well of 6-well cluster plates (Costar #3506) in 4 ml Minimum Essential Medium (MEM) with 10% Fetal Calf Serum (FCS). Following an 18 hour incubation period (37° C.), Moloney murine leukemia virus (MoLV) was applied at a predetermined titer to give optimal (i.e. countable) numbers of virus plaques. Compounds were added 2 hours prior to addition of the virus. Three days later the culture medium was removed, the SC-1 cell monolayers were exposed to UV irradiation (1800 ergs), and rat XC cells […] were seeded into each well in 4 ml MEM. Following an additional 3 day incubation (37° C.), these cells were fixed with ethyl alcohol (95%) and stained with 0.3% crystal violet. Plaques were then counted under low magnification.

≈ marks a conversion by molar mass, not a printed value. Read-outs that look alike come from different tables or passages of the source.

As for `OC[C@H]1OC(O)[C@@H](F)[C@@H](O)[C@@H]1O` (stereo partly drawn) [2-deoxy-2-fluoro-D-mannose], in the assay with influenza infected cells, the “antiviral activity against influenza infected cells” value is listed as “exhibit antiviral activity against influenza infected cells”. In assay [1], the “inhibition of viral protein glycosylation” value is given as “preventing the glycosylation of viral membrane protein”.

For `OC[C@H]1OC(O)[C@H](F)[C@@H](O)[C@@H]1O` (some centres unmarked) [2-deoxy-2-fluoroglucose], the “inhibition of viral protein glycosylation” value in assay [1] is reported as “inhibit viral protein glycosylation”.

Regarding `O=CC[C@@H](O)[C@H](O)[C@H](O)CO` [2-deoxy-D-glucose], the “block of formation of syncytia” value in the assay on HIV is recorded as “block the formation of syncytia”. The “inhibition of expression of HIV glycoproteins” value with HIV glycoproteins is listed as “inhibit expression of HIV glycoproteins”. For the same molecule, in assay [1] (McDowell et al. 1985), the “inhibition of viral protein glycosylation” value is “inhibit viral protein glycosylation”. For the same molecule, the “viral multiplication of HIV-infected cells” value with HIV-infected cells is recorded as “stopped”.

In the case of `O=C(O[C@H]1CN2CC[C@H](O)[C@@H]2[C@@H](O)[C@@H]1O)c1ccco1` [R = 2-Furanoyl, R1 = H, R2 = H, 6-(2-Furancarboxylate)], in assay [2], the IC50 was 1 µg/mL (≈ 3.53 µM).

`CC(=O)O[C@H]1CN2CC[C@H](O)[C@@H]2[C@@H](O)[C@@H]1O` [R = Ac, R1 = H, R2 = H, [1S-(1α,6β,7α,8β,8aβ)]-octahydro-1,6,7,8-indolizinetetrol 6-acetate]: the IC50 in assay [2] stood at 10 µg/mL (≈ 43.2 µM).

Regarding `CCCC(=O)O[C@H]1[C@H](O)[C@@H](OC(=O)CCC)CN2CC[C@H](O)[C@H]12` [R = Butanoyl, R1 = H, R2 = Butanoyl, [1S-(1α,6β,7α,8β,8aβ)]-octahydro-1,6,7,8-indolizinetetrol 6,8-dibutanoate], in assay [2], the IC50 came out at 0.5 µg/mL (≈ 1.52 µM).

As to `CCCC(=O)O[C@H]1CN2CC[C@H](O)[C@@H]2[C@@H](O)[C@@H]1O` [R = Butanoyl, R1 = H, R2 = H, [1S(1α,6β,7α,8β,8aβ)]-octahydro-1,6,7,8indolizinetrol 6-butanoate], in assay [2], the IC50 worked out at 0.1 µg/mL (≈ 0.386 µM).

Consider `O=C(O[C@H]1[C@H](O)[C@H]2[C@@H](O)CCN2C[C@@H]1OC(=O)c1ccccc1)c1ccccc1` [R = Bz, R1 = Bz, R2 = H, [1S-(1α,6β,7α,8β,8aβ)]-octahydro-1,6,7,8-indolizinetetrol 6,7-dibenzoate], for which the IC50 in assay [2] is 10 µg/mL (≈ 25.2 µM).

For the molecule `O=C(O[C@H]1CN2CC[C@H](O)[C@@H]2[C@@H](O)[C@@H]1O)c1ccccc1` [R = Bz, R1 = H, R2 = H, [1S-(1α,6β,7α,8β,8aβ)]octahydro-1,6,7,8-indolizinetetrol 6-benzoate], the IC50 in assay [2] was determined as 0.1 µg/mL (≈ 0.341 µM).

As for `O=C(O[C@H]1[C@H](O)[C@H]2[C@@H](O)CCN2C[C@@H]1O)c1ccc(Cl)cc1Cl` [R = H, R1 = 2,4-Cl2 -Bz, R2 = H, [1S-(1α,6β,7α,8β,8aβ)]-octahydro-1,6,7,8-indolizinetetrol 7-(2,4-dichlorobenzoate)], the IC50 in assay [2] was 1 µg/mL (≈ 2.76 µM).

Turning to `O=C(O[C@H]1[C@H](O)[C@H]2[C@@H](O)CCN2C[C@@H]1O)c1ccccc1` [R = H, R1 = Bz, R2 = H, [1S-(1α,6β,7α,8β,8aβ)]-octahydro 1,6,7,8-indolizinetetrol 7-benzoate], the IC50 in assay [2] was 1 µg/mL (≈ 3.41 µM).

For the molecule `Cc1ccc(C(=O)O[C@H]2[C@H](O)[C@H]3[C@@H](O)CCN3C[C@@H]2O)cc1` [R = H, R1 = p-CH3 Bz, R2 = H, [1S-(1α,6β,7α,8β,8aβ)]-octahydro-1,6,7,8-indolizinetetrol 7-(4-methylbenzoate)], the IC50 in assay [2] amounted to 1 µg/mL (≈ 3.25 µM).

As to `Cc1ccc(C(=O)O[C@H]2CN3CC[C@H](O)[C@@H]3[C@@H](O)[C@@H]2O)cc1` [R = p-CH3 -Bz, R1 = H, R2 = H, [1S-(1α,6β,7α,8β,8aβ)]-octahydro-1,6,7,8-indolizinetetrol 6-(4-methylbenzoate)], the IC50 in assay [2] is 1 µg/mL (≈ 3.25 µM).

As to `COc1ccc(C(=O)O[C@H]2CN3CC[C@H](O)[C@@H]3[C@@H](O)[C@@H]2O)cc1` [R = p-CH3 O-Bz, R1 = H, R2 = H, [1S-(1α,6β,7α,8β,8aβ)]-octahydro-1,6,7,8-indolizinetetrol 6-(4-methoxybenzoate)], in assay [2], the IC50 came out at 10 µg/mL (≈ 30.9 µM).

As to `O=C(O[C@H]1CN2CC[C@H](O)[C@@H]2[C@@H](O)[C@@H]1O)c1ccc(F)cc1` [R = p-F-Bz, R1 = H, R2 = H, [1S-(1α,6β,7α,8β,8aβ)]-octahydro-1,6,7,8-indolizinetetrol 6-(4-fluorobenzoate)], the IC50 in assay [2] came to 10 µg/mL (≈ 32.1 µM).

For `O=C(O[C@H]1[C@H](O)[C@H]2[C@@H](O)CCN2C[C@@H]1OC(=O)c1ccc(F)cc1)c1ccc(F)cc1` [R = p-F-Bz, R1 = p-F-Bz, R2 = H, [1S-(1α,6β,7α,8β,8aβ)]-octahydro-1,6,7,8-indolizinetetrol 6,7-bis(4-fluorobenzoate)], the IC50 in assay [2] worked out at 10 µg/mL (≈ 23.1 µM).

Regarding `CCC(O)[C@H](N)C(=O)O` (stereo partly drawn) [β-hydroxy-norvaline], the “block of formation of syncytia” value in the assay on HIV is on record as “block the formation of syncytia”. Further, the “inhibition of expression of HIV glycoproteins” value in the assay with HIV glycoproteins is “inhibit expression of HIV glycoproteins”. For the same molecule, in the assay with HIV-infected cells, the “viral multiplication of HIV-infected cells” value is on record as “stopped”.

Source of the values: patent US5004746A, “Anti-retroviral castanospermine esters” (Merrell Dow Pharmaceuticals Inc., priority 1987, dated 1991).
